This is an account of results in ChEMBL document CHEMBL3396990, “Development of 1,3-diphenyladamantane derivatives as nonsteroidal progesterone receptor antagonists” (Bioorg Med Chem, 2015).

One may read the IC50 as the point on the concentration scale where inhibition reaches its midpoint.

Active and inactive are the calls of the source. The calls are words filed in the database; no cut-off is given here.

Assay [1] addresses T1, Progesterone receptor (Homo sapiens) (UniProt P06401).
T1 sequence (whole entry): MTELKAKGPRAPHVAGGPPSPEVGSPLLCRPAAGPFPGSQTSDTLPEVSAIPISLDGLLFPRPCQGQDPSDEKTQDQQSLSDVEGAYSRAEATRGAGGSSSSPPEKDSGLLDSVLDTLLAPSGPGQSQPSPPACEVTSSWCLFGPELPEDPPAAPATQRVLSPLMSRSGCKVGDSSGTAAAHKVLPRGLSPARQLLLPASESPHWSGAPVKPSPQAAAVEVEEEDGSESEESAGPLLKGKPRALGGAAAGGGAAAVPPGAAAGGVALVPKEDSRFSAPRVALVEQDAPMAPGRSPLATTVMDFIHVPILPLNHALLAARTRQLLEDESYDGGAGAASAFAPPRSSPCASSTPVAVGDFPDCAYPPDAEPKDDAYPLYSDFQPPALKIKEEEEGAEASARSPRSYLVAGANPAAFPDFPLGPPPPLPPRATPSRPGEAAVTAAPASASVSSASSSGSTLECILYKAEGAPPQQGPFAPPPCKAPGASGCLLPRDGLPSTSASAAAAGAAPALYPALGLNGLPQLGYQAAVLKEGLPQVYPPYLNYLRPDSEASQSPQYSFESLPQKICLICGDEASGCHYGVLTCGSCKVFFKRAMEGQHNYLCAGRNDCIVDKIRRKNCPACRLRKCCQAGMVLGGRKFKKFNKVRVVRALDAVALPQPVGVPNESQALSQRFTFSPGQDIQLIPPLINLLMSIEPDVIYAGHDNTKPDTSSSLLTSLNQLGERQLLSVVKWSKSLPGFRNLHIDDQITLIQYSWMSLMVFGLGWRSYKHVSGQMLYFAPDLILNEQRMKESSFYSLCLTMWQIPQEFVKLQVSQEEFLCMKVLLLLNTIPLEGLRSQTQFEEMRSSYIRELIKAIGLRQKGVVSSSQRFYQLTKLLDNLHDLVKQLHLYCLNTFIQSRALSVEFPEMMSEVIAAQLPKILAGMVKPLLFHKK
The experiment in a line: Agonist activity at PR in human T47D cells assessed as induction of alkaline phosphatase expression after 24 hrs by plate reader analysis. The class given is cell-based.

The target of assay [2] is T2, Progesterone receptor (Homo sapiens, UniProt P06401).
T2 sequence (P06401 whole entry): T1 sequence (whole entry)
As to the kind of experiment: Antagonist activity at PR in human T47D cells assessed as inhibition of progesterone-inducted alkaline phosphatase expression after 24 hrs by plate reader analysis. Type of assay: cell-based.

The target of assay [3] is T2, Progesterone receptor. As to the kind of experiment: Displacement of [1,2,6,7-3H]progesterone from human recombinant PR LBD after 24 hrs by liquid scintillation counting analysis.

Turning to `CCCCCC(=O)Nc1ccc(C23CC4CC(CC(c5ccc(C#N)cc5)(C4)C2)C3)cc1`, the outcome in assay [1] was inactive. Besides, the IC50 at Progesterone receptor [2] stood at 174 nM.

On to `CCN(C(C)=O)c1ccc(C23CC4CC(CC(c5ccc(C#N)cc5)(C4)C2)C3)cc1`, for which the outcome in assay [1] was inactive. Further, the IC50 at Progesterone receptor [2] is 39.5 nM.

As for `CS(=O)(=O)Nc1ccc(C23CC4CC(CC(c5ccc(C#N)cc5)(C4)C2)C3)cc1`, the outcome in assay [1] was inactive. Besides, the IC50 at Progesterone receptor [2] worked out at 119 nM.

Consider `CN(C(=O)c1ccccc1)c1ccc(C23CC4CC(CC(c5ccc(C#N)cc5)(C4)C2)C3)cc1`, for which, in assay [1], the outcome was inactive. The IC50 at Progesterone receptor [2] turned out to be 311 nM; on Progesterone receptor [3], 228 nM.

On to `COC(=O)Nc1ccc(C23CC4CC(CC(c5ccc(C#N)cc5)(C4)C2)C3)cc1`, for which the outcome in assay [1] was inactive. The IC50 on Progesterone receptor [2] is 25 nM; on Progesterone receptor [3], over 10000 nM.

With `N#Cc1ccc(C23CC4CC(CC(c5ccc(N)cc5)(C4)C2)C3)cc1`, the result in assay [1] was inactive. At Progesterone receptor [2], the IC50 was 178 nM.

As for `COC(=O)N(C)c1ccc(C23CC4CC(CC(c5ccc(C#N)cc5)(C4)C2)C3)cc1`, in assay [1], the outcome was inactive. The IC50 at Progesterone receptor [2] came to 36.2 nM.

As to `CC(=O)Nc1ccc(C23CC4CC(CC(c5ccc(C#N)cc5)(C4)C2)C3)cc1`, the outcome in assay [1] was inactive. The IC50 at Progesterone receptor [2] was 58.4 nM.

In the case of `N#Cc1ccc(C23CC4CC(C2)CC(c2ccc([N+](=O)[O-])cc2)(C4)C3)cc1`, in assay [1], the result was inactive. The IC50 at Progesterone receptor [2] stood at 53 nM.

As for `N#Cc1ccc(C23CC4CC(C2)CC(c2ccc(NC(=O)c5ccccc5)cc2)(C4)C3)cc1`, the result in assay [1] was inactive. The IC50 at Progesterone receptor [2] stood at 404 nM.

With `CN(c1ccc(C23CC4CC(CC(c5ccc(C#N)cc5)(C4)C2)C3)cc1)S(C)(=O)=O`, the outcome in assay [1] was inactive. In addition, the IC50 on Progesterone receptor [2] came out at 74 nM.

On to `CCCCCC(=O)N(C)c1ccc(C23CC4CC(CC(c5ccc(C#N)cc5)(C4)C2)C3)cc1`, for which, in assay [1], the result was inactive. The IC50 on Progesterone receptor [2] is 125 nM.

In the case of `CC(=O)N(C)c1ccc(C23CC4CC(CC(c5ccc(C#N)cc5)(C4)C2)C3)cc1`, the outcome in assay [1] was inactive. For the same compound, the IC50 came out at 25.8 nM at Progesterone receptor [2] and 53 nM at Progesterone receptor [3].

Take `N#Cc1ccc(C23CC4CC(C2)CC(c2ccc(N(Cc5ccccc5)Cc5ccccc5)cc2)(C4)C3)cc1`: in assay [1], the outcome was inactive. On Progesterone receptor [2], the IC50 is over 1000 nM.
